Measurements published in the NIST ThermoML archive (doi:10.1016/j.fluid.2016.08.015).
Numbers after ± are expanded uncertainties.

Legend:
[1] = Liquid; for mass density: 293.15 K, 101.33 kPa, Vibrating tube method; for vapor or sublimation pressure: 298 K, Gas chromatography
[2] = refractive index (Na D-line) (dimensionless); settings: 293.15 K; 101.33 kPa; Liquid; Standard Abbe refractometry

| mass density [1] | vapor or sublimation pressure [1] | refractive index [2] | Structure (SMILES) |
| --- | --- | --- | --- |
| 1798 ± 1 kg/m3 | 2.57 ± 0.27 kPa | 1.275 ± 0.001 | FC(F)(F)C(F)(F)C(F)(F)C(F)(F)C(F)(F)C(F)(F)C(F)(F)C(F)(F)C(F)(F)F [eicosafluorononane] |
| 1717 ± 1 kg/m3 | 10.12 ± 0.79 kPa | 1.261 ± 0.001 | FC(F)(F)C(F)(F)C(F)(F)C(F)(F)C(F)(F)C(F)(F)C(F)(F)F [hexadecafluoroheptane] |
